Reference: patent publication US20260069531A1, “POLYMERIC LEUPROLIDE ACETATE FORMULATIONS” (Tolmar International Limited, priority 2023, published 2026)

Experiments:
[1] = LA gelation studies of drug solutions (60° C., inversion test, HPLC content); type: physicochemical; conditions: e-beam irradiated, 150 rpm, up to 16 days
Description: Drug solutions were prepared as described above and filled into syringes or glass vials. Syringes were untreated, contained various amounts of silicone, or were plasma coated for lubrication. Samples were irradiated by e-beam irradiation at not less than 25 kGy and stored at accelerated conditions of 60° C. with agitation at 150 rpm for up to 16 days. Samples were inspected periodically to determine if the drug solution remained a solution or had formed a solid/gel by an inversion test. Samples that had “gelled” were transferred to 5° C. for subsequent testing.
The gelation rate for each sample was calculated as Rate=1/(simulated 5° C. age at time of gelation in days). The Arrhenius equation was used to determine the simulated age, assuming standard reaction rate doubling for every 10° C. increase in temperature. […] Data was analyzed using JMP. […] Container type and lubrication were not significant.
Samples were tested for leuprolide content by HPLC. Leuprolide content was then converted to leuprolide acetate by multiplying by 1.078 (based on molecular mass ratios). A marked difference in leuprolide acetate content between the gelled and non-gelled samples was seen, with the tipping point between solution and solid/gelled samples occurring at about 45% LA.

[2] = type: physicochemical
Source text: To produce the drug/solvent bulk solution comprising the API (LA), the desired amount of the LA was combined with the solvent NMP or DMSO or combination of solvents with or without a co-solvent or other additives, in the indicated amounts (see individual experiments below). The API and solvent were combined in a glass vial or jar. Jars were mixed using the jar mill, Turbula, or shaker at room temperature until homogeneous. LA is soluble in NMP or DMSO and can load higher concentrations (at least 40% w/w). After dissolving the API in the organic solvent, the bulk solution was manually filled into syringes and capped with a tip cap. The syringes used for filling were either 1.2 mL male polypropylene syringes, 1.2 mL male cyclic olefin copolymer syringes or 1 mL male cyclic olefin copolymer syringes. Filled syringes were then packaged in labeled foil pouches with a Syringe A (polymer-solvent solution) and a desiccant pack and the pouches were sealed. After filling the syringes with the formulations, they were terminally sterilized with an external radiation dose of 30 kGy from e-beam processing. After terminal sterilization, the syringes were stored under refrigerated conditions (e.g., 2-8° C.) or accelerated conditions (>25° C. see individual experiments).

tipping point between solution and solid/gelled samples (leuprolide acetate content) [1]: about 45 % LA | concentration of LA that can be loaded (soluble) [2]: at least 40 % w/w
SMILES: CCNC(=O)[C@@H]1CCCN1C(=O)[C@H](CCCNC(=N)N)NC(=O)[C@H](CC(C)C)NC(=O)[C@@H](CC(C)C)NC(=O)[C@H](Cc1ccc(O)cc1)NC(=O)[C@H](CO)NC(=O)[C@H](Cc1c[nH]c2ccccc12)NC(=O)[C@H](Cc1c[nH]cn1)NC(=O)[C@@H]1CCC(=O)N1 [Leuprolide Acetate, leuprolide acetate]
